From article PMC9151520 (Archives of Toxicology, 2022)
Where two headings read alike, the source gives them in different places.

How the values were obtained:
[1] = system: p53 signaling (p53RE-bla HCT-116 cells); assay: cells; type: cell-based
[2] = system: p53 signaling (p53RE-bla HCT-116 cells); assay: cells; type: cell-based; remark: listed apart in the source
[3] = system: p53 signaling (p53RE-bla HCT-116 cells); assay: cells; type: cell-based; conditions: Homo sapiens; for EC50: HCT-116; for Emax: HCT-116, read-out: efficacy
[4] = system: p53 signaling (p53RE-bla HCT-116 cells)
[5] = system: p53 signaling (p53RE-bla HCT-116 cells); remark: listed apart in the source
[6] = system: p53RE-bla HCT-116 cells
[7] = rat
[8] = system: p53 signaling (p53RE-bla HCT-116 cells); assay: cells; conditions: Homo sapiens
[9] = in vitro; conditions: male, Sprague Dawley, rat, microsomes, pH 7.4
[10] = system: p53 signaling (p53RE-bla HCT-116 cells); assay: cells; conditions: Homo sapiens, HCT-116, read-out: p53 activation EC50, HLM
[11] = read-out: p53 activation EC50, RLM
[12] = HCT-116, read-out: p53 activation EC50, RLM

In the case of `CCOP(=S)(Oc1cnc(C(C)(C)C)nc1)OC(C)C` (centres unmarked) [Tebupirimfos], the “p53 activation EC50” value [1] is reported as “inactive”, the p53 activation efficacy [1] is reported as “inactive” and the EC50 ([2]; Homo sapiens, HCT-116, 0.5 h) is reported as 2.17 µM. It also gave an EC50 [3] of 1.32 µM, a p53 activation efficacy [4] of 42.005 and an EC50 ([4]; read-out: p53 activation EC50) of 1.63 µM. For the same compound, the “p53 activation EC50” value [5] was “inactive”, the “Viability EC50” value [6] was “inactive” and the Viability efficacy [6] was “inactive”. For the same compound, the “Depletion after 16 h of incubation with cells” value (shortened to “Depletion after 16 h”) [7] was 94.85 ± 0.13%, the EC50 ([8]; HCT-116) was 1.23 µM and the Emax ([8]; HCT-116, read-out: efficacy) was 43.4%. It also gave a half-life [9] of 3.59 ± 0.08 min.
For `CCOP(=S)(OCC)Oc1nc(Cl)c(Cl)cc1Cl` [Chlorpyrifos], the “activity outcome in p53-bla assay” value [1] was “inactive”, the “p53 activation EC50, No MS” value [1] was “inactive” and the “p53 activation Efficacy, No MS” value [1] was “inactive”. The EC50 [2] was “Inactive”, the EC50 [3] was 3.75 µM and the Emax [3] was 45.2%. The “activity outcome in p53-bla assay” value [4] was “activator of p53 signaling”, the EC50 [4, 11] was 2.8 µM and the “p53 activation EC50, HLM” value [5] was “inactive”. The “Viability EC50, HLM” value [6] was “inactive”, the “Viability EC50, No MS” value [6] was “inactive” and the “Viability EC50, RLM” value [6] was “inactive”. The “Viability Efficacy, HLM” value [6] was “inactive”, the “Viability Efficacy, No MS” value [6] was “inactive” and the “Viability Efficacy, RLM” value [6] was “inactive”. The “Depletion after 16 h” value [7] was 92.74 ± 1.38%, the EC50 ([8]; HCT-116) was 3.47 µM and the Emax ([8]; HCT-116, read-out: efficacy) was 50.6%. It also gave an EC50 [8, 12] of 2.92 µM, an EC50 [10] of 1.78 µM and a half-life [9] of 1.11 ± 0.07 min.
For `CCOP(=S)(OCC)SCCSCC` [Disulfoton], the “p53 activation EC50, No MS” value [1] was “inactive”, the “p53 activation Efficacy, No MS” value [1] was “inactive” and the EC50 [2] was “Inactive”. For the same compound, the EC50 [3] was 8.47 µM, the Emax [3] was 43.6% and the “activity outcome in p53-bla assay” value [4] was “induce p53 signaling”. The EC50 [4, 11] was 3.97 µM, the “p53 activation EC50, HLM” value [5] was “inactive” and the “Viability EC50, HLM” value [6] was “inactive”. For the same compound, the “Viability EC50, No MS” value [6] was “inactive”, the “Viability EC50, RLM” value [6] was “inactive” and the “Viability Efficacy, HLM” value [6] was “inactive”. The “Viability Efficacy, No MS” value [6] was “inactive”, the “Viability Efficacy, RLM” value [6] was “inactive” and the “Depletion after 16 h” value [7] was 93.89 ± 4.12%. It also gave an EC50 ([8]; HCT-116) of 9.13 µM, an Emax ([8]; HCT-116, read-out: efficacy) of 43.3% and an EC50 [8, 12] of 7.78 µM. For the same compound, the EC50 [10] was 5.07 µM and the half-life [9] was > 120 min.
With `Cc1ccccc1OP(=O)(Oc1ccccc1C)Oc1ccccc1C` [Tri-o-cresyl phosphate] the “p53 activation EC50, No MS” value [1] was “inactive”, the “p53 activation Efficacy, No MS” value [1] was “inactive” and the EC50 ([2]; Homo sapiens, HCT-116, 0.5 h) was 15.8 µM. For the same compound, the EC50 [3] was 3.14 µM, the “p53 activation EC50, HLM” value [5] was “inactive” and the “Viability EC50, HLM” value [6] was “inactive”. The “Viability EC50, No MS” value [6] was “inactive”, the “Viability EC50, RLM” value [6] was “inactive” and the “Viability Efficacy, HLM” value [6] was “inactive”. For the same compound, the “Viability Efficacy, No MS” value [6] was “inactive”, the “Viability Efficacy, RLM” value [6] was “inactive” and the “Depletion after 16 h” value [7] was 93.36 ± 0.84%. It also gave an EC50 ([8]; HCT-116) of 5.32 µM, an Emax ([8]; HCT-116, read-out: efficacy) of 59.6% and an EC50 [10] of 1.12 µM. The half-life [9] was 1.17 ± 0.08 min.
With `CCOP(=O)(OCC)OC(=CCl)c1ccc(Cl)cc1Cl` [Chlorfenvinphos] the “p53 activation EC50, No MS” value [1] was “inactive”, the “p53 activation Efficacy, No MS” value [1] was “inactive” and the EC50 ([2]; Homo sapiens, HCT-116, 0.5 h) was 0.02 µM. The EC50 [3] was 2.54 µM, the EC50 [4, 11] was 2.08 µM and the “p53 activation EC50, HLM” value [5] was “inactive”. The “Viability EC50, HLM” value [6] was “inactive”, the “Viability EC50, No MS” value [6] was “inactive” and the “Viability EC50, RLM” value [6] was “inactive”. The “Viability Efficacy, HLM” value [6] was “inactive”, the “Viability Efficacy, No MS” value [6] was “inactive” and the “Viability Efficacy, RLM” value [6] was “inactive”. For the same compound, the “Depletion after 16 h” value [7] was 55.04 ± 4.69%, the EC50 ([8]; HCT-116) was 6.36 µM and the Emax ([8]; HCT-116, read-out: efficacy) was 66.8%. For the same compound, the EC50 [8, 12] was 3.8 µM, the EC50 [10] was 3.05 µM and the half-life [9] was 28.6 ± 1.85 min.
With `Cc1cc(=O)oc2cc(O)ccc12` [4-Methylumbelliferone] the “EC50, p53 activation, primary screening” value [1] was “inactive”, the “Efficacy, p53 activation, primary screening” value [1] was “inactive” and the EC50 ([1]; Homo sapiens, HCT-116, read-out: EC50, p53 activation, cherry pick confirmation) was 18.2 µM. For the same compound, the Emax ([1]; Homo sapiens, HCT-116, read-out: Efficacy, p53 activation, cherry pick confirmation) was 30%, the EC50 [2] was “Inactive” and the EC50 [3] was 24.2 µM. For the same compound, the Emax [3] was 114%, the “EC50, p53 activation, cherry pick confirmation” value [5] was “inactive” and the “Efficacy, p53 activation, cherry pick confirmation” value [5] was “inactive”. For the same compound, the “EC50, viability, cherry pick confirmation” value [6] was “inactive”, the “EC50, viability, primary screening” value [6] was “inactive” and the “Efficacy, viability, cherry pick confirmation” value [6] was “inactive”. For the same compound, the “Efficacy, viability, primary screening” value [6] was “inactive”, the “Depletion after 16 h” value [7] was 46.53 ± 5.89% and the EC50 ([8]; HCT-116) was 25.2 µM. It also gave an EC50 ([8]; HCT-116, read-out: EC50, p53 activation, cherry pick confirmation) of 25.9 µM, an Emax ([8]; HCT-116, read-out: Efficacy, p53 activation, cherry pick confirmation) of 89.9% and an Emax ([8]; HCT-116, read-out: efficacy) of 99.5%. It also gave a half-life [9] of 19.1 min.
